Target: T1, MAGL (Homo sapiens, UniProt Q99685)
T1 sequence (Q99685 1-303): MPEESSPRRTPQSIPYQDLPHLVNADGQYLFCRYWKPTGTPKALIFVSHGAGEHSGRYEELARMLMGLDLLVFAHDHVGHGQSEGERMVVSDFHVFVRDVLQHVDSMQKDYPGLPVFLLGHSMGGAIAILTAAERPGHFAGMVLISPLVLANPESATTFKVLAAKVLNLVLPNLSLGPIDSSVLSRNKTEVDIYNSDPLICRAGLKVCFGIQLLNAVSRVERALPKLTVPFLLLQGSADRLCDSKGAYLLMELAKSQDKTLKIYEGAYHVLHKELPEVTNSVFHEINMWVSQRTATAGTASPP
Experiment: MAGL inhibition, 2-AG assay (hydrolysis of 2-arachidonoylglycerol, arachidonic acid by mass spectrometry)
Format: biochemical
Settings: 2-AG assay (footnote [b])
Summary of the method: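 Human MAGL […] was preincubated 15 min at RT with compound ([…], 3-fold steps) in 50 mM Tris, 1 mM EDTA, 0.01% Tween. 2-AG (8 μM) was then added for 30 min at RT. Arachidonic acid was quantified by RapidFire SPE–triple quadrupole MS in negative ESI as its ratio to a d8-arachidonic acid standard.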

| SMILES | IC50 [nM] |
| --- | --- |
| O=C1CO[C@H]2CCN(C(=O)N3CC(C(c4ccccc4)c4ccccc4)C3)C[C@H]2N1 [Example 86, (4aR,8aS)-6-(3-Benzhydrylazetidine-1-carbonyl)hexahydro-2H-pyrido[4,3-b][1,4]oxazin-3(4H)-one] | 155 |
| O=C1CO[C@H]2CCN(C(=O)N3CC(c4ccc(N5CC(F)C5)cc4)C3)C[C@H]2N1 [Example 201, (4aR,8aS)-6-(3-(4-(3-Fluoroazetidin-1-yl)phenyl)azetidine-1-carbonyl)hexahydro-2H-pyrido[4,3-b][1,4]oxazin-3(4H)-one] | 101 |
| O=C1CO[C@H]2CCN(C(=O)N3CC(c4ccc(Cl)cn4)C3)C[C@H]2N1 [Example 181, (4aR,8aS)-6-(3-(5-Chloropyridin-2-yl)azetidine-1-carbonyl)hexahydro-2H-pyrido[4,3-b][1,4]oxazin-3(4H)-one] | 593 |
| Cc1ccccc1-c1ccc(C2CN(C(=O)N3CC[C@@H]4OCC(=O)N[C@@H]4C3)C2)cc1 [Example 137, (4aR,8aS)-6-(3-(2′-Methyl-[1,1′-biphenyl]-4-yl)azetidine-1-carbonyl)hexahydro-2H-pyrido[4,3-b][1,4]oxazin-3(4H)-one] | 0.1 |
| O=C1CO[C@H]2CCN(C(=O)N3CC(c4nnc(-c5ccc(Cl)cc5Cl)o4)C3)C[C@H]2N1 [Example 253, (4aR,8aS)-6-[3-[5-(2,4-Dichlorophenyl)-1,3,4-oxadiazol-2-yl]azetidine-1-carbonyl]-4,4a,5,7,8,8a-hexahydropyrido[4,3-b][1,4]oxazin-3-one] | 4 |
| O=C1CO[C@H]2CCN(C(=O)N3CC(c4ccc(C5(CO)CC5)cc4)C3)C[C@H]2N1 [Example 214, (4aR,8aS)-6-(3-(4-(1-(Hydroxymethyl)cyclopropyl)phenyl)azetidine-1-carbonyl)hexahydro-2H-pyrido[4,3-b][1,4]oxazin-3(4H)-one] | 62 |
| O=C1CO[C@H]2CCN(C(=O)N3CC(c4cccc(Br)c4)C3)C[C@H]2N1 [Example 139, (4aR,8aS)-6-(3-(3-Bromophenyl)azetidine-1-carbonyl)hexahydro-2H-pyrido[4,3-b][1,4]oxazin-3(4H)-one] | 27 |
| O=C1CO[C@H]2CCN(C(=O)N3CC(c4ccc(N5CCC(C(F)(F)F)C5)nc4)C3)C[C@H]2N1 (stereo partly drawn) [Example 275, (4aR,8aS)-6-[3-[6-[3S-or 3R-(trifluoromethyl)pyrrolidin-1-yl]-3-pyridyl]azetidine-1-carbonyl]-4,4a,5,7,8,8a-hexahydropyrido[4,3-b][1,4]oxazin-3-one] | 4 |
| CC(C)(C)OC(=O)NCCOc1cccc(C(c2ccccc2)C2CCN(C(=O)N3CC[C@@H]4OCC(=O)N[C@@H]4C3)CC2)c1 (stereo partly drawn) [Example 237, tert-Butyl (2-(3-((1-((4aR,8aS)-3-oxooctahydro-2H-pyrido[4,3-b][1,4]oxazine-6-carbonyl)piperidin-4-yl)(phenyl)methyl)phenoxy)ethyl)carbamate] | 1 |
| CC1(c2ccc(Br)cc2)CN(C(=O)N2CC[C@@H]3OCC(=O)N[C@@H]3C2)C1 [Example 124, (4aR,8aS)-6-(3-(4-Bromophenyl)-3-methylazetidine-1-carbonyl)hexahydro-2H-pyrido[4,3-b][1,4]oxazin-3(4H)-one] | 113 |

Now from value to compound:

| IC50 [nM] | SMILES |
| --- | --- |
| 1 | O=C1CO[C@H]2CCN(C(=O)N3CC(c4ccc(N5CCC(C(F)(F)F)C5)cc4)C3)C[C@H]2N1 (single isomer, unassigned) [Example 198, (4aR,8aS)-6-(3-(4-((S or R)-3-(Trifluoromethyl)pyrrolidin-1-yl)phenyl)azetidine-1-carbonyl)hexahydro-2H-pyrido[4,3-b][1,4]oxazin-3(4H)-one] |
| 1 | O=C1CO[C@H]2CCN(C(=O)N3CC(c4ccc(CC(F)(F)F)cc4)C3)C[C@H]2N1 [Example 187, (4aR,8aS)-6-[3-[4-(2,2,2-Trifluoroethyl)phenyl]azetidine-1-carbonyl]-4,4a,5,7,8,8a-hexahydropyrido[4,3-b][1,4]oxazin-3-one] |
| 25 | COc1ccc(C(c2ccccn2)C2CCN(C(=O)N3CC[C@@H]4OCC(=O)N[C@@H]4C3)CC2)cc1OC (single isomer, unassigned) [Example 118, (4aR,8aS)-6-[4-[(R or S)-(3,4-dimethoxyphenyl)-(2-pyridyl)methyl]piperidine-1-carbonyl]-4,4a,5,7,8,8a-hexahydropyrido[4,3-b][1,4]oxazin-3-one] |
| 3300 | CC1CN(C(=O)N2CC[C@@H]3OCC(=O)N[C@@H]3C2)CC[C@@H]1c1ccc(C(C)(F)F)cn1 (single isomer, unassigned) [Example 45, (4aR,8aS)-6-((4R or 4S)-(5-(1,1-Difluoroethyl)pyridin-2-yl)-3-methylpiperidine-1-carbonyl)hexahydro-2H-pyrido[4,3-b][1,4]oxazin-3(4H)-one] |
| 419 | O=C1CO[C@H]2CCN(C(=O)N3CC(C(F)(c4ccc(F)cc4)c4ccc(F)cc4)C3)C[C@H]2N1 [Example 55, (4aR,8aS)-6-(3-(Fluorobis(4-fluorophenyl)methyl)azetidine-1-carbonyl)hexahydro-2H-pyrido[4,3-b][1,4]oxazin-3(4H)-one] |
| 62 | CC(Oc1ccc(C(F)(F)F)cc1)C1CN(C(=O)N2CC[C@@H]3OCC(=O)N[C@@H]3C2)C1 (single isomer, unassigned) [Example 98, (4aR,8aS)-6-(3-((R or S)-1-(4-(Trifluoromethyl)phenoxy)ethyl)azetidine-1-carbonyl)hexahydro-2H-pyrido[4,3-b][1,4]oxazin-3(4H)-one] |
| 219 | Cc1cc(C2CCN(C(=O)N3CC[C@@H]4OCC(=O)N[C@@H]4C3)CC2)cnc1C(F)(F)F [Example 101, (4aR,8aS)-6-(4-(5-Methyl-6-(trifluoromethyl)pyridin-3-yl)piperidine-1-carbonyl)hexahydro-2H-pyrido[4,3-b][1,4]oxazin-3(4H)-one] |
| 44 | CC(Oc1ccc(C(F)(F)F)cc1F)C1CN(C(=O)N2CC[C@@H]3OCC(=O)N[C@@H]3C2)C1 (single isomer, unassigned) [Example 96, (4aR,8aS)-6-(3-((R or S)-1-(2-Fluoro-4-(trifluoromethyl)phenoxy)ethyl)azetidine-1-carbonyl)hexahydro-2H-pyrido[4,3-b][1,4]oxazin-3(4H)-one] |
| 9 | O=C1CO[C@H]2CCN(C(=O)N3CCC(C(OCC(F)(F)F)c4ccc(F)cc4)CC3)C[C@H]2N1 (stereo partly drawn) [Example 50, (4aR,8aS)-6-(4-((4-Fluorophenyl)(2,2,2-trifluoroethoxy)methyl)piperidine-1-carbonyl)hexahydro-2H-pyrido[4,3-b][1,4]oxazin-3(4H)-one] |
| 0.2 | COc1cccc(C(c2ccccc2)C2CCN(C(=O)N3CC[C@@H]4OCC(=O)N[C@@H]4C3)CC2)c1 (single isomer, unassigned) [Example 65, (4aR,8aS)-6-(4-((R or S)-(3-Methoxyphenyl)(phenyl)methyl)piperidine-1-carbonyl)hexahydro-2H-pyrido[4,3-b][1,4]oxazin-3(4H)-one] |
| 12 | O=C1CO[C@H]2CCN(C(=O)N3CC(c4ccc(OC(F)(F)F)c(F)c4)C3)C[C@H]2N1 [Example 202, (4aR,8aS)-6-(3-(3-Fluoro-4-(trifluoromethoxy)phenyl)azetidine-1-carbonyl)hexahydro-2H-pyrido[4,3-b][1,4]oxazin-3(4H)-one] |
